Test results taken from PubChem BioAssay AID1963874 (Molecular Pharmacology Branch, DTP, NCI, 2024).

Test system: 253994-281-T-J1-PDC KRAS-mutant spheroids with HUVEC/MSC, viability
Assay: Anticancer human tumor 253994-281-T-J1-PDC patient-derived colorectal carcinoma cell line growth inhibition [KRAS2]
Details: for IC50: curve of first compound; for viability, T/C: stronger effect = lower value
Procedure, shortened: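 KRAS-mutant tumor cells were grown as spheroids with HUVEC endothelial cells and human MSCs as stroma. Targeted agents were tested alone and with KRAS pathway inhibitors. Doses started at or near clinical Cmax, or 10 microM, descending half-log.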

[1] = second compound 0.0316 µM, first compound 0.000316 µM
[2] = second compound 0.0316 µM, first compound 0.001 µM
[3] = second compound 0.0316 µM, first compound 0.00316 µM
[4] = second compound 0.0316 µM, first compound 0.01 µM
[5] = second compound 0.0316 µM, first compound 0.0316 µM
[6] = second compound 0.1 µM, first compound 0.000316 µM
[7] = second compound 0.1 µM, first compound 0.001 µM
[8] = second compound 0.1 µM, first compound 0.00316 µM
[9] = second compound 0.1 µM, first compound 0.01 µM
[10] = second compound 0.1 µM, first compound 0.0316 µM
[11] = second compound 0.316 µM, first compound 0.000316 µM
[12] = second compound 0.316 µM, first compound 0.001 µM
[13] = second compound 0.316 µM, first compound 0.00316 µM
[14] = second compound 0.316 µM, first compound 0.01 µM
[15] = second compound 0.316 µM, first compound 0.0316 µM
[16] = second compound 1 µM, first compound 0.000316 µM
[17] = second compound 1 µM, first compound 0.001 µM
[18] = second compound 1 µM, first compound 0.00316 µM
[19] = second compound 1 µM, first compound 0.01 µM
[20] = second compound 1 µM, first compound 0.0316 µM
[21] = second compound 3.16 µM, first compound 0.000316 µM
[22] = second compound 3.16 µM, first compound 0.001 µM
[23] = second compound 3.16 µM, first compound 0.00316 µM
[24] = second compound 3.16 µM, first compound 0.01 µM
[25] = second compound 3.16 µM, first compound 0.0316 µM
[26] = second compound 0.0316 µM, first compound 0.1 µM
[27] = second compound 0.1 µM, first compound 0.1 µM
[28] = second compound 0.316 µM, first compound 0.1 µM
[29] = second compound 1 µM, first compound 0.1 µM
[30] = second compound 3.16 µM, first compound 0.1 µM
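Note: spheroids exposed to agents for seven days before readout.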
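Throughout, for viability, T/C: percent of DMSO vehicle control viability.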

`CC(=O)Nc1cccc(-n2c(=O)n(C3CC3)c(=O)c3c(Nc4ccc(I)cc4F)n(C)c(=O)c(C)c32)c1` + C=CC(=O)N1CCN(c2nc(OCC3CCCN3C)nc3c2CCN(c2cccc4cccc(C)c24)C3)CC1CC#N was tested, and the IC50 (second compound 0.0316 µM) was 0.00157 µM, the IC50 (second compound 0.1 µM) was 0.00098 µM and the IC50 (second compound 0.316 µM) was 0.00066 µM. It also gave an IC50 (second compound 1 µM) of 0.000616 µM, an IC50 (second compound 3.16 µM) of less than 0.0001 µM and a viability, T/C (second compound 0.0316 µM, first compound 0.0001 µM) of 86.7%. For the same compound, the viability, T/C [1] was 84.6%, the viability, T/C [2] was 66% and the viability, T/C [3] was 24.7%. For the same compound, the viability, T/C [4] was 12%, the viability, T/C [5] was 6.91% and the viability, T/C (second compound 0.1 µM, first compound 0.0001 µM) was 72.5%. For the same compound, the viability, T/C [6] was 76.9%, the viability, T/C [7] was 47% and the viability, T/C [8] was 22.2%. The viability, T/C [9] was 14.6%, the viability, T/C [10] was 6.68% and the viability, T/C (second compound 0.316 µM, first compound 0.0001 µM) was 74.9%. The viability, T/C [11] was 64.7%, the viability, T/C [12] was 41.4% and the viability, T/C [13] was 20.9%. It also gave a viability, T/C [14] of 9.84%, a viability, T/C [15] of 4.12% and a viability, T/C (second compound 1 µM, first compound 0.0001 µM) of 78.9%. The viability, T/C [16] was 68%, the viability, T/C [17] was 34.6% and the viability, T/C [18] was 23.4%. For the same compound, the viability, T/C [19] was 8.81%, the viability, T/C [20] was 4.05% and the viability, T/C (second compound 3.16 µM, first compound 0.0001 µM) was 23.4%. The viability, T/C [21] was 11.8%, the viability, T/C [22] was 31.7% and the viability, T/C [23] was 3.64%. It also gave a viability, T/C [24] of 0.37% and a viability, T/C [25] of 1.21%.
In the case of `CN(C)C/C=C/C(=O)Nc1cc2c(Nc3ccc(F)c(Cl)c3)ncnc2cc1O[C@H]1CCOC1` + C=CC(=O)N1CCN(c2nc(OCC3CCCN3C)nc3c2CCN(c2cccc4cccc(C)c24)C3)CC1CC#N, the IC50 (second compound 0.0316 µM) is reported as greater than 0.1 µM, the IC50 (second compound 0.1 µM) is reported as greater than 0.1 µM and the IC50 (second compound 0.316 µM) is reported as greater than 0.1 µM. For the same compound, the IC50 (second compound 1 µM) was greater than 0.1 µM, the IC50 (second compound 3.16 µM) was 0.00072 µM and the viability, T/C [1] was 95.7%. It also gave a viability, T/C [2] of 89.4%, a viability, T/C [3] of 92.3% and a viability, T/C [4] of 95.7%. For the same compound, the viability, T/C [5] was 88.5%, the viability, T/C [26] was 54% and the viability, T/C [6] was 83.2%. The viability, T/C [7] was 91.5%, the viability, T/C [8] was 76.6% and the viability, T/C [9] was 86.1%. For the same compound, the viability, T/C [10] was 69.2%, the viability, T/C [27] was 53.8% and the viability, T/C [11] was 95.7%. The viability, T/C [12] was 81.3%, the viability, T/C [13] was 87.5% and the viability, T/C [14] was 77.4%. The viability, T/C [15] was 78.3%, the viability, T/C [28] was 66.5% and the viability, T/C [16] was 97.9%. The viability, T/C [17] was 108%, the viability, T/C [18] was 83.1% and the viability, T/C [19] was 69.4%. For the same compound, the viability, T/C [20] was 73.1%, the viability, T/C [29] was 62.2% and the viability, T/C [21] was 53.8%. The viability, T/C [22] was 48.5%, the viability, T/C [23] was 4.58% and the viability, T/C [24] was 22%. For the same compound, the viability, T/C [25] was 19.6% and the viability, T/C [30] was 5.55%.
In the case of `COC(=O)c1ccc2c(C(=Nc3ccc(N(C)C(=O)CN4CCN(C)CC4)cc3)c3ccccc3)c(O)[nH]c2c1` + C=CC(=O)N1CCN(c2nc(OCC3CCCN3C)nc3c2CCN(c2cccc4cccc(C)c24)C3)CC1CC#N, the IC50 (second compound 0.0316 µM) is reported as 4.96 µM, the IC50 (second compound 0.1 µM) is reported as 4.29 µM and the IC50 (second compound 0.316 µM) is reported as 3.34 µM. For the same compound, the IC50 (second compound 1 µM) was 2.31 µM, the IC50 (second compound 3.16 µM) was less than 0.0316 µM and the viability, T/C [5] was 101%. For the same compound, the viability, T/C [26] was 112%, the viability, T/C (second compound 0.0316 µM, first compound 0.316 µM) was 98.7% and the viability, T/C (second compound 0.0316 µM, first compound 1 µM) was 96.4%. The viability, T/C (second compound 0.0316 µM, first compound 3.16 µM) was 76.3%, the viability, T/C (second compound 0.0316 µM, first compound 10 µM) was 9.63% and the viability, T/C [10] was 94.2%. The viability, T/C [27] was 88.3%, the viability, T/C (second compound 0.1 µM, first compound 0.316 µM) was 86.7% and the viability, T/C (second compound 0.1 µM, first compound 1 µM) was 75.5%. The viability, T/C (second compound 0.1 µM, first compound 3.16 µM) was 66.9%, the viability, T/C (second compound 0.1 µM, first compound 10 µM) was 13.4% and the viability, T/C [15] was 109%. For the same compound, the viability, T/C [28] was 85.9%, the viability, T/C (second compound 0.316 µM, first compound 0.316 µM) was 80.4% and the viability, T/C (second compound 0.316 µM, first compound 1 µM) was 72.5%. The viability, T/C (second compound 0.316 µM, first compound 3.16 µM) was 59.4%, the viability, T/C (second compound 0.316 µM, first compound 10 µM) was 15.7% and the viability, T/C [20] was 90.7%. The viability, T/C [29] was 85.8%, the viability, T/C (second compound 1 µM, first compound 0.316 µM) was 66.9% and the viability, T/C (second compound 1 µM, first compound 1 µM) was 72.7%. The viability, T/C (second compound 1 µM, first compound 3.16 µM) was 44%, the viability, T/C (second compound 1 µM, first compound 10 µM) was 0.21% and the viability, T/C [25] was 5.16%. It also gave a viability, T/C [30] of 10.4%, a viability, T/C (second compound 3.16 µM, first compound 0.316 µM) of 18.4% and a viability, T/C (second compound 3.16 µM, first compound 1 µM) of 9.87%. It also gave a viability, T/C (second compound 3.16 µM, first compound 3.16 µM) of 0.17% and a viability, T/C (second compound 3.16 µM, first compound 10 µM) of 0.22%.
